Laboratory results published in patent publication US8722877B2, “7-deazapurine modulators of histone methyltransferase, and methods of use thereof” (Epizyme, Inc., priority 2010, dated 2014).
Where a name gives a salt, the structure may show the parent alone. Read-outs that look alike come from different tables or passages of the source. Blank lines part the entries; values can stand above or below the compound they belong to.

Key:
[1] = tested on: H3K79 methylation in MOLM-13 cells; assay: Cellular H3K79 methylation analysis (histone immunoblot) in MOLM-13 cells; format: cell-based, human
MOLM-13 cells = assay: Cell growth and viability / proliferation, MOLM-13 cells; format: cell-based, human
DOT1L(1-416) = DOT1L(1-416) (Homo sapiens (Human), UniProt Q8TEK3); assay: Determination of IC50, DOT1L biochemical assay
Chain of DOT1L(1-416) (Q8TEK3 1-416): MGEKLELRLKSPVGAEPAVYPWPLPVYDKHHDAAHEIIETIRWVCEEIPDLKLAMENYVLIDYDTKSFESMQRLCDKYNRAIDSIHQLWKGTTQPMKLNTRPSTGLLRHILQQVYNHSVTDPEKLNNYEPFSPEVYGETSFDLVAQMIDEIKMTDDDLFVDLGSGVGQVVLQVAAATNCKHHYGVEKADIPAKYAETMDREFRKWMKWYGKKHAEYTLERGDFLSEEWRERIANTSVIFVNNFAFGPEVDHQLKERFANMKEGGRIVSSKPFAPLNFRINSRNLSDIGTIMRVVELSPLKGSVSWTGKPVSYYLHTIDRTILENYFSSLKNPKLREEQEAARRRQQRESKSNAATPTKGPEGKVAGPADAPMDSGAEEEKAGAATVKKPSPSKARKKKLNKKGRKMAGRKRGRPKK

[2] = tested on: MLL-rearranged human leukemia cell lines; assay: Proliferation IC50 in panel of MLL-rearranged leukemia cell lines; format: cell-based; settings: six MLL-rearranged cell lines (FIG. 6)
Jurkat cells = assay: Proliferation assay, Jurkat cells; format: cell-based, human; settings: 3 μM, several days
MEIS1 = MEIS1 transcript levels by quantitative real-time PCR; settings: for IC50: read-out: decrease of MEIS1 transcript, IC50
H3K79me2 in Jurkat cells = assay: Cellular H3K79me2 immunoblot in Jurkat cells; settings: Jurkat (non-MLL-rearranged)
HOXA9 = HOXA9 transcript levels by quantitative real-time PCR; settings: for IC50: read-out: decrease of HOXA9 transcript, IC50
CD14 = assay: Cell surface expression of differentiation marker CD14 by flow cytometry, MOLM-13 cells; settings: 3 μM
[3] = tested on: non-MLL rearranged human leukemia cell lines; assay: Proliferation IC50 in panel of non-MLL-rearranged leukemia cell lines; format: cell-based; settings: six non-MLL rearranged cell lines (FIG. 6), read-out: IC50 for inhibition of proliferation
MV4-11 cells [4] = assay: Proliferation assay, MV4-11 cells; format: cell-based, human; settings: 3 μM, several days
H3K79me2 in MV4-11 cells = assay: Cellular histone methylation immunoblot in MV4-11 cells
MV4-11 cells [5] = assay: Cell cycle and apoptosis by flow cytometry (DNA content, Annexin V), MV4-11 cells; settings: 3 μM, after day four over the next six days
TBP = assay: Housekeeping gene TBP transcript levels
[6] = MV4-11 cells, 3 μM, time course

- IC50 (DOT1L(1-416)): < 1000 nM
SMILES: CC(=O)N(CCCNC(=O)Nc1ccc(C(C)(C)C)cc1)C[C@H]1O[C@@H](n2ccc3c(N)ncnc32)[C@H](O)[C@@H]1O [Compound 21]

- IC50 (DOT1L(1-416)): < 1000 nM
SMILES: CC(C)(C)c1ccc(NC(=O)NCCCNC[C@H]2O[C@@H](n3ccc4c(N)ncnc43)[C@H](O)[C@@H]2O)cc1 [Compound 20]

The remaining lines, values behind:

SMILES: CN(CCCNC(=O)Nc1ccc(C(C)(C)C)cc1)CC1O[C@@H](n2ccc3c(N)ncnc32)[C@H](O)[C@@H]1O (stereo partly shown) [Compound 9, hydrochloride]
- IC50 ([1]; MOLM-13 cells, read-out: H3K79 IC50 MOLM-13 cells): 77 nM
- IC50 (MOLM-13 cells; MOLM-13 cells, read-out: Proliferation IC50 MOLM-13 cells): 17300 nM

SMILES: CC(C)N(CCCNC(=O)Nc1ccc(C(C)(C)C)cc1)C[C@H]1O[C@@H](n2ccc3c(N)ncnc32)[C@H](O)[C@@H]1O [Compound 16, 1-(3-((((2R,3S,4R,5R)-5-(4-amino-7H-pyrrolo[2,3-d]pyrimidin-7-yl)-3,4-dihydroxytetrahydrofuran-2-yl)methyl)(isopropyl)amino)propyl)-3-(4-(tert-butyl)phenyl)urea]
- IC50 for inhibition of proliferation [2]: nanomolar to low micromolar range
- growth of cells (Jurkat cells): unaffected
- mode of binding to the enzyme (steady state kinetic analysis) (DOT1L(1-416); versus SAM): binds to the enzyme competitively with SAM
- estimated half-life for MEIS1 inhibition (MEIS1; 3 μM, mRNA over time): 79.2 h
- IC50 (MEIS1; MOLM-13 cells): ~700 nM
- IC50 (MEIS1; MV4-11 cells): ~700 nM
- global H3K79me2 levels (H3K79me2 in Jurkat cells): concentration dependent reduction
- global H3K79me2 levels ([1]; MOLM-13 (MLL-AF9), immunoblot): concentration dependent reduction
- estimated half-life for HOXA9 inhibition (HOXA9; 3 μM, mRNA over time): 55.2 h
- IC50 (HOXA9; MOLM-13 cells): ~700 nM
- IC50 (HOXA9; MV4-11 cells): ~700 nM
- expression of CD14 (CD14): induced following 12 days
- IC50 [3]: > 10000 nM
- number of viable cells (MOLM-13 cells; MOLM-13 cells, 3 μM, several days): dramatically reduced
- number of viable cells (MV4-11 cells [4]): dramatically reduced
- global H3K79me2 levels (H3K79me2 in MV4-11 cells; MV4-11 (MLL-AF4), immunoblot): concentration dependent reduction
- methyl marks affected (panel of methyl-lysine and methyl-arginine specific antibodies) (H3K79me2 in MV4-11 cells; MV4-11 cells): only methyl marks affected by compound 16 treatment were H3K79me1 and H3K79me2
- H3K79me2 levels within one day of treatment (H3K79me2 in MV4-11 cells; [6]): modest reduction
- time to full depletion of H3K79me2 (H3K79me2 in MV4-11 cells; [6]): four to five
- cell cycle and apoptosis (MV4-11 cells [5]): increase in sub-G1 and Annexin-positive cells
- transcript levels of the housekeeping gene TBP (TBP): unaffected

SMILES: CC(C)N(CCCNC(=O)Nc1ccc(C(C)(C)C)cc1)C[C@H]1O[C@@H](n2ccc3c(N)ncnc32)[C@H](O)[C@@H]1O [Compound 17, 1-(3-((((2R,3S,4R,5R)-5-(4-amino-7H-pyrrolo[2,3-d]pyrimidin-7-yl)-3,4-dihydroxytetrahydrofuran-2-yl)methyl)(isopropyl)amino)propyl)-3-(4-(tert-butyl)phenyl)urea hydrochloride]
- IC50 ([1]; Homo sapiens, MOLM-13, read-out: H3K79 IC50 MOLM-13 cells): 59 nM
- IC50 (MOLM-13 cells; Homo sapiens, MOLM-13, read-out: Proliferation IC50 MOLM-13 cells): 3200 nM

SMILES: CC(C)N(CCCCc1nc2cc(C(C)(C)C)ccc2[nH]1)C[C@H]1O[C@@H](n2ccc3c(N)ncnc32)[C@H](O)[C@@H]1O [Compound 18, (2R,3R,4S,5R)-2-(4-amino-7H-pyrrolo[2,3-d]pyrimidin-7-yl)-5-(((4-(5-(tert-butyl)-1H-benzo[d]imidazol-2-yl)butyl)(isopropyl)amino)methyl)tetrahydrofuran-3,4-diol]
- IC50 (DOT1L(1-416)): < 10 nM
